Test results published in publication PMC6128854 (Scientific Reports, 2018).
Positions of bridges follow the written chain, without caps; N, C: chain ends. Non-standard residues stand in square brackets, D forms with d. Residues, ends and D or L forms follow the SMILES beside them. Hyp = O=C(O)[C@@H]1C[C@@H](O)CN1

Tests used:
hCav2.2 = hCav2.2 (Homo sapiens, UniProt Q00975); assay: cell-based; details: SEM
[1] = target: Cav2.2 in human SH-SY5Y cell membranes (Homo sapiens, UniProt Q00975); assay: biochemical; format: binding; details: SEM
Chain of Cav2.2 in human SH-SY5Y cell membranes (Q00975 whole entry, looked up): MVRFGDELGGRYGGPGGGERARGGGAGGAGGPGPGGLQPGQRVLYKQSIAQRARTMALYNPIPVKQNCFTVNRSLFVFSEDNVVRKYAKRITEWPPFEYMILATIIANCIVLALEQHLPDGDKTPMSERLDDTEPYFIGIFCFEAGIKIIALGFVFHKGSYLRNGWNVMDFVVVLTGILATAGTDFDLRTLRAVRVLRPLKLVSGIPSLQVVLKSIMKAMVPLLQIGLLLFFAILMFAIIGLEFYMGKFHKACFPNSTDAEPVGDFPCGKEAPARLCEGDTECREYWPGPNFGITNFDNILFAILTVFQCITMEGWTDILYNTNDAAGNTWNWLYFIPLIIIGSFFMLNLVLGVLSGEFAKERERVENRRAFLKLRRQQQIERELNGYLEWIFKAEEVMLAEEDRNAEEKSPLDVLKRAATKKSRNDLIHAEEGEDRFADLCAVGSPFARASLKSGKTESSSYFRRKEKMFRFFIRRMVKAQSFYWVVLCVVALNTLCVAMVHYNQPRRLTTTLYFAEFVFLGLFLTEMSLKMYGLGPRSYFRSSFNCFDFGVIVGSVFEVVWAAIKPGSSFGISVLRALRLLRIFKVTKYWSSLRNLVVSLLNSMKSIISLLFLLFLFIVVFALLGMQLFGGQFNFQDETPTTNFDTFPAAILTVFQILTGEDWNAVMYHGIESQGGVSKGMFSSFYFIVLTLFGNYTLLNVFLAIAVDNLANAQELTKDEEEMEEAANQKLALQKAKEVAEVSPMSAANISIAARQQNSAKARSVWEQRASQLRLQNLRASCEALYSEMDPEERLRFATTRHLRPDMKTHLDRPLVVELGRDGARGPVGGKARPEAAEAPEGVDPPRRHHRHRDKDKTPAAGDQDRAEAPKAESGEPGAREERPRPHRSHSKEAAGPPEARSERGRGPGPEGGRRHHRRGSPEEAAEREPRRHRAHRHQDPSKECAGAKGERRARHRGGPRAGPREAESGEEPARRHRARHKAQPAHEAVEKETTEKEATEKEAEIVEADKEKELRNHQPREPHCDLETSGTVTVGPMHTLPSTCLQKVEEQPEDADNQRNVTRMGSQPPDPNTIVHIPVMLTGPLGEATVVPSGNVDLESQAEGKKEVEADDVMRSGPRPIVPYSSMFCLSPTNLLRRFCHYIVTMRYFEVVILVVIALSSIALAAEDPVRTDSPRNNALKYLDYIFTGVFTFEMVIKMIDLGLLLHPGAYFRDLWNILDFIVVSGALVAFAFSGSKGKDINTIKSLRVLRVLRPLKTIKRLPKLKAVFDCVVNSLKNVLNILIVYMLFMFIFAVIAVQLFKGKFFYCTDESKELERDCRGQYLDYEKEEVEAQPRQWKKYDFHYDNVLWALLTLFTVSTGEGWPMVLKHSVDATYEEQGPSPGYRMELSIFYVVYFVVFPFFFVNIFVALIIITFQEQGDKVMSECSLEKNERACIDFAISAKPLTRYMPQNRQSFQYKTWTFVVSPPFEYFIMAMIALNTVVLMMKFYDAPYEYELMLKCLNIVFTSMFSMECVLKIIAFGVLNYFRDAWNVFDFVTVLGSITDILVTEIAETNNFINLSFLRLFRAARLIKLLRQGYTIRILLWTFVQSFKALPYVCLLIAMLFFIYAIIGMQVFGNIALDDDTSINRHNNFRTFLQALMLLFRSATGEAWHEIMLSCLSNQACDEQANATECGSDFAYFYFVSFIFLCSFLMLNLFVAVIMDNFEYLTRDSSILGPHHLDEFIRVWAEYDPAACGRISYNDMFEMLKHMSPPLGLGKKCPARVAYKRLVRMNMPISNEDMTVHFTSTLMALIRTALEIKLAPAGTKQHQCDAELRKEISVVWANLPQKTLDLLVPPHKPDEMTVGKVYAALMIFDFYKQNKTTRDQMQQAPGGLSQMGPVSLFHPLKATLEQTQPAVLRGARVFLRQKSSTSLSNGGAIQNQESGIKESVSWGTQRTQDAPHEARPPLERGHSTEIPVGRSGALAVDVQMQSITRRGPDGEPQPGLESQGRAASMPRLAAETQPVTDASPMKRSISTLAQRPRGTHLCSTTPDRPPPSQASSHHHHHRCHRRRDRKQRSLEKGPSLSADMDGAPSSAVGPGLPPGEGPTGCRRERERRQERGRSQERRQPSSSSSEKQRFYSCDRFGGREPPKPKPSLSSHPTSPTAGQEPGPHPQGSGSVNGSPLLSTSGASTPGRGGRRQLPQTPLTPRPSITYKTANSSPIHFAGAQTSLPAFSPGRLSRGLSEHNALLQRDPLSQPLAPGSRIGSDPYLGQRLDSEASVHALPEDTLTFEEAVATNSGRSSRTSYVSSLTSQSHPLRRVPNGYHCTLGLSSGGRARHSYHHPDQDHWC

Chain of hCav2.2 (Q00975 whole entry, looked up): as above

SMILES	IC50 (hCav2.2) [nM]	IC50 [1] [nM]
C[C@@H](O)[C@@H]1NC(=O)[C@H](Cc2ccc(O)cc2)NC(=O)[C@@H]2C[C@@H](O)CN2C(=O)[C@H](CC(N)=O)NC(=O)[C@@H]2CSSC[C@@H]3NC(=O)[C@H](CO)NC(=O)[C@H](CO)NC(=O)CNC(=O)[C@@H]4C[C@@H](O)CN4C(=O)[C@H](CO)NC(=O)[C@H](CCCCN)NC(=O)[C@@H](N)CSSC[C@H](NC(=O)[C@H](CSSC[C@@H](C(=O)N[C@@H](Cc4ccc(O)cc4)C(N)=O)NC(=O)[C@H](CCCN=C(N)N)NC(=O)[C@H](CCCCN)NC1=O)NC(=O)[C@H](CC(N)=O)NC(=O)[C@H](Cc1ccc(O)cc1)NC(=O)[C@H](CO)NC(=O)[C@H]([C@@H](C)O)NC(=O)[C@@H]1C[C@@H](O)CN1C(=O)[C@H](CO)NC3=O)C(=O)N[C@@H](CCCN=C(N)N)C(=O)N[C@@H](CO)C(=O)N2 [GVIA, reference compound]	170 ± 25	0.078 ± 0.012
CC[C@H](C)[C@@H]1NC(=O)[C@@H]2CSSC[C@@H]3NC(=O)[C@H](CCCCN)NC(=O)[C@H](CO)NC(=O)CNC(=O)[C@@H]4C[C@@H](O)CN4C(=O)[C@@H]4CCCN4C(=O)[C@H](CCCCN)NC(=O)[C@@H](N)CSSC[C@H](NC(=O)[C@H](CSSC[C@@H](C(=O)N[C@@H](CCCNC(=N)N)C(=O)N[C@@H](CCCCN)C(=O)N[C@@H](Cc4ccc(O)cc4)C(=O)N[C@@H](Cc4ccc(O)cc4)C(=O)N[C@@H](CC(N)=O)C(=O)O)NC(=O)[C@H](CCCNC(=N)N)NC(=O)[C@H](CCCCN)NC(=O)[C@H]([C@@H](C)O)NC(=O)[C@H](Cc4ccc(O)cc4)NC(=O)[C@H](CO)NC1=O)NC(=O)[C@H](CC(=O)O)NC(=O)[C@H](CCCNC(=N)N)NC(=O)[C@H](CCSC)NC(=O)[C@H](CO)NC(=O)[C@@H]1C[C@@H](O)CN1C(=O)[C@H](CO)NC3=O)C(=O)N[C@@H]([C@@H](C)O)C(=O)N[C@@H]([C@@H](C)O)C(=O)N2 [MoVIA] (H-CKP[Hyp]GSKCS[Hyp]SMRDCCTTCISYTKRCRKYYN-OH; disulfide 1-16, 8-19, 15-26)	330 ± 18	0.035 ± 0.017
CC[C@H](C)[C@@H]1NC(=O)[C@@H]2CSSC[C@@H]3NC(=O)[C@H](CCCCN)NC(=O)[C@H](CO)NC(=O)CNC(=O)[C@@H]4C[C@@H](O)CN4C(=O)[C@@H]4CCCN4C(=O)[C@H](CCCCN)NC(=O)[C@@H](N)CSSC[C@H](NC(=O)[C@H](CSSC[C@@H](C(=O)N[C@@H](CCCNC(=N)N)C(=O)N[C@@H](CCCCN)C(=O)N[C@@H](Cc4ccc(O)cc4)C(=O)N[C@@H](Cc4ccc(O)cc4)C(=O)O)NC(=O)[C@H](CCCNC(=N)N)NC(=O)[C@H](CCCCN)NC(=O)[C@H]([C@@H](C)O)NC(=O)[C@H](Cc4ccc(O)cc4)NC(=O)[C@H](CO)NC1=O)NC(=O)[C@H](CC(=O)O)NC(=O)[C@H](CCCNC(=N)N)NC(=O)[C@H](CCSC)NC(=O)[C@H](CO)NC(=O)[C@@H]1C[C@@H](O)CN1C(=O)[C@H](CO)NC3=O)C(=O)N[C@@H]([C@@H](C)O)C(=O)N[C@@H]([C@@H](C)O)C(=O)N2 [MoVIB] (H-CKP[Hyp]GSKCS[Hyp]SMRDCCTTCISYTKRCRKYY-OH; disulfide 1-16, 8-19, 15-26)	600 ± 120	0.365 ± 0.204
